The values below come from patent US20240390301A1, “COMBINATIONS OF PERIPHERAL 5-HT2A RECEPTOR ANTAGONISTS AND CENTRAL 5-HT2A RECEPTOR AGONISTS” (priority 2021, published 2024).

What is called fraction unbound is the share of the substance not bound to proteins or other matrix. Low readings indicate little free substance, high ones much free substance. A word on the Tmax: it is the time from dosing to the highest level. By Cmax is commonly meant the maximum level reached in the sampled fluid or tissue. Broadly, the AUC(0-t) is the area under the concentration-time curve up to a stated or last time point. What is called half-life is the time needed for the level to fall by half in the phase considered. Read a high half-life as slow loss.

Several values for one entry are separate records, joined by “and”; a condition that tells them apart may be missing. Equal values may be shown once. Read-outs that look alike come from different tables or passages of the source.

A short description of data set [1]: in vivo. Here is the method: The pharmacokinetics of peripheral 5-HT2A antagonists were studied in the plasma (Tables 11 and 12) and brains (Table 13 and 14) of rats after subcutaneous (SC) dosing. The results were used to interpret the in vivo pharmacological results.
Animals. Male Sprague Dawley rats, aged 8-12 weeks. were used in these studies. Four rats were housed in each cage. […] Temperature and humidity were recorded by an auto-controlled data logger system. All animals were provided laboratory rodent diet and were fasted for 4 h pre-dose and 2 h post-dose. Reverse osmosis water treated with ultraviolet light was provided ad libitum. Animals were randomly assigned to treatment groups.
Drugs and Drug Administration. Test compounds were prepared as described above or commercially obtained. They were administered subcutaneously (SC) at a dose of 1 or 10 mg/kg (as indicated, calculated based on the free base) and at a volume of 5 mL/kg body weight.
Sample Collection and Bioanalysis. […] SC. […] For both studies, immediately after blood collection, plasma was harvested by centrifugation at 4,000 rpm for 10 min at 4° C. and samples were stored at −70±10° C. until bioanalysis. Following blood collection, animals were immediately sacrificed, the abdominal vena-cava was cut open, and the whole body was perfused from the heart using 10 mL of normal saline, and brain samples were collected from all animals. After isolation, brain samples were rinsed three times in ice-cold normal saline (for 5-10 seconds/rinse using ˜5-10 mL normal saline in disposable petri dish for each rinse) and dried on blotting paper. Brain samples were homogenized using ice-cold phosphate-buffered saline (pH 7.4). Total homogenate volume was three times the tissue weight. All homogenates were stored at −70±10° C. until bioanalysis. For bioanalysis, 25 μL aliquots of plasma/brain study samples or spiked plasma/brain calibration standards were added to individual pre-labeled micro-centrifuge tubes followed by 100 μL of an internal standard solution (glipizide, 500 ng/ml in acetonitrile) except for blanks, where 100 μL of acetonitrile was added. Samples were vortexed for 5 minutes and then centrifuged for 10 minutes at 4,000 rpm at 4° C. Following centrifugation, 100 μL of each clear supernatant was transferred to a 96-well plate and analyzed with a fit-for-purpose LC-MS/MS method, with authentic samples of each analyte used for calibration and identification.

Data set [2] can be described thus: in vitro. Particulars: for fraction unbound at 4 h, 5 μM: pH 7.4. On the procedure: Method 1. Aliquots of 50 μL loading matrix containing test compound (2 μM final incubation concentration) or control compound in triplicate were transferred to a Sample Collection Plate. The samples were matched with opposite blank buffer to obtain a final volume of 100 μL, with a volume ratio of matrix: Dialysis Buffer of 1:1 (v:v) in each well. Stop solution (200 ng/ml tolbutamide and 200 ng/mL labetalol in ACN) was added to these TO samples of test compound and control compound. The plate was sealed and shaken at 800 rpm for 10 min. An aliquot of 100 μL of the loading matrix containing test compound or control compound was transferred to the donor side of each dialysis well in triplicate and 100 μL of the Dialysis Buffer was loaded to the receiver side of the well. Then the plate was rotated at approximately 100 rpm in a humidified incubator with 5% CO2 at 37±1° C. for 4 hours. At the end of the dialysis, aliquots of 50 μL samples from the buffer side and matrix side of the dialysis device were taken into new 96-well plates (Sample Collection Plates). An equal volume of opposite blank matrix (buffer or matrix) in each sample was added to reach a final volume of 100 μL, with volume ratio of matrix: Dialysis Buffer of 1:1 (v:v) in each well. All samples were further processed by protein precipitation before LC-MS/MS analysis.
Method 2. Aliquots (200 μL) of positive controls and test compounds at 5 μM (triplicates) were separately added to the plasma chamber and […] of phosphate buffered saline (pH 7.4) was added to the buffer chamber of the inserts. After sealing the rapid equilibrium dialysis (RED) device with an adhesive film, dialysis was performed in an incubator at 37° C. with shaking at 100 RPM for 4 hours. Aliquots (50 μL) of warfarin and test compounds were added to four 0.5 mL micro fuse tubes. Two aliquots were frozen immediately (0-minute sample). The other two aliquots were incubated at 37° C. for 4 hours along with the RED device. Following dialysis, an aliquot of 50 μL was removed from each well (both plasma and buffer side) and diluted with an equal volume of opposite matrix (dialyzed with the other matrix) to nullify the matrix effect. Similarly, 50 μL of buffer was added to recovery and stability samples. An aliquot of 100 μL was used for LC-MS/MS analysis following protein precipitation with ACN containing internal standard.

The conditions of data set [3]: 37° C. On the procedure: Method 1. Pooled frozen rat brain homogenate was thawed in a water bath at 37° C. prior to the experiment. Using an Apricot automation workstation, 98 μL/well of blank brain homogenate or 100 mM PBS were added to all 96-well reaction plates (Blank, T0, T10, T30, T60, and T120). […] All reaction plates containing mixtures of compound and brain homogenate were incubated at 37° C. in a water bath for up to 120 minutes. At the end of incubation, 500 uL of stop solution (200 ng/mL tolbutamide and 200 ng/mL labetalol in ACN) was added to precipitate protein and mixed thoroughly for 20 minutes at 4° C. After centrifugation at 4,000 rpm and 4° C. for 20 minutes, an Apricot automation workstation was used to transfer 150 μL of supernatant from each reaction plate to its corresponding bioanaylsis plate, which was shaken for 10 minutes prior to LC-MS/MS analysis.
Method 2. Rat brain tissue homogenate samples were prepared by diluting one volume of whole rat brain tissue with two volumes of dialysis buffer (phosphate buffered saline pH 7.4-0.1 M sodium phosphate and 0.15 M sodium chloride) to yield 3 times diluted homogenate. Test compounds were spiked into 400 μL aliquots (n=3) of rat brain homogenate and the resulting mixtures were incubated at 37° C. […] An aliquot (100 μL) of each sample was transferred to a 96-well deep plate and analyzed by LC-MS/MS.

Where [4] appears, read: male, Sprague Dawley, rat, in vivo, sc, 10 mg/kg.
Setting [5] is: Method 2: 3 times diluted homogenate.
[6] abbreviates: male, Sprague Dawley, rat, in vivo, sc, 1 mg/kg.

On to `COc1cccc(CCc2ccccc2OCC(CN(C)C)OC(=O)CCC(=O)O)c1` (stereo not drawn) [sarpogrelate], for which, in data set [1] (setting [4]), the concentration at 0.167 h is 2130 ng/mL and 28.9 ng/g; the concentration at 0.5 h was 2990 ng/mL and 31.8 ng/g. The same compound had a fraction unbound at 4 h, 5 μM in data set [2] (rat, plasma) of 0.002.

In the case of `COc1cccc(OC(C)CNC(=N)Cc2cccc(C)c2)c1.O=C(O)C(F)(F)F` (stereo not drawn) [xylamidine, N-(2-(3-methoxyphenoxy)propyl)-2-(m-tolyl) acetimidamide trifluoroacetate], in data set [1] (brain, 1 mg/kg SC), the “Tmax” value is 60 min and the “t1/2” value came to 289 min. Besides, the “0.167 h (ng/g) brain concentration” value in data set [1] (brain, 1 mg/kg SC, 0.167 h) was determined as 14.4 ng/g. The “0.5 h (ng/g) brain concentration” value in data set [1] (brain, 1 mg/kg SC, 0.5 h) worked out at 35.4 ng/g. The “Mean brain concentration 0.167 h” value in data set [1] (brain, 10 mg/kg SC, 0.167 h) is 100.8 ng/g. In data set [1] (brain, 10 mg/kg SC, 0.5 h), the “Mean brain concentration 0.5 h” value is 60.7 ng/g. In data set [1] (plasma, 1 mg/kg SC), the “AUC0-last” value turned out to be 343.6 ng·h/mL, the “Cmax” value stood at 155.4 ng/mL, the time to peak (Tmax) amounted to 10.2 min and the “t1/2” value came out at 103 min. For the same compound, the “0.167 h (ng/mL) plasma concentration” value in data set [1] (plasma, 1 mg/kg SC, 0.167 h) turned out to be 155.4 ng/mL. In addition, in data set [1] (plasma, 1 mg/kg SC, 0.5 h), the “0.5 h (ng/mL) plasma concentration” value was determined as 133.4 ng/mL. For the same compound, in data set [1] (plasma, 10 mg/kg SC, 0.167 h), the “Mean plasma concentration 0.167 h” value is 1099.2 ng/mL. In addition, the “Mean plasma concentration 0.5 h” value in data set [1] (plasma, 10 mg/kg SC, 0.5 h) came out at 670.0 ng/mL. In data set [3] (setting [5]), the “% Remaining (120 minutes), rat brain homogenate” value (“% Remaining (120 minutes)” for short) came out at 100%. Besides, the “Mean % bound (rat plasma protein binding)” value in data set [2] (Method 2: RED, 5 μM, 4 hours, 37° C.) is listed as 65.6%.

Consider `CC(C)COc1ccc(CNC(=O)N(Cc2ccc(F)cc2)C2CCN(C(=O)CC[C@H](N)C(=O)O)CC2)cc1` [Compound 14a, (S)-2-amino-5-(4-(1-(4-fluorobenzyl)-3-(4-isobutoxybenzyl)ureido)piperidin-1-yl)-5-oxopentanoic acid], for which, in data set [1] (setting [6]), the AUC(0-t) is 434 ng·h/mL, the peak level (Cmax) was 271 ng/mL, the Tmax is 30 min and the concentration at 0.167 h turned out to be 265 ng/mL. For the same compound, in data set [1] (setting [6]), the concentration at 0.5 h is 271 ng/mL and the half-life is 51 min. In data set [1] (setting [4]), the concentration at 0.167 h is 966 ng/mL and 35.6 ng/g; the concentration at 0.5 h is 1530 ng/mL and 40.7 ng/g. This compound also gave a fraction unbound at 4 h, 5 μM in data set [2] (rat, plasma) of 0.06.

As to `COc1cccc(C(=O)Nc2ccc(OCCN3CCOCC3)c(-c3ccnn3C)c2)c1` [temanogrel], in data set [1] (setting [4]), the concentration at 0.167 h was 411 ng/mL and 113 ng/g; the concentration at 0.5 h is 518 ng/mL and 148 ng/g. Besides, the “% Remaining (120 minutes)” value in data set [3] (setting [5]) amounted to 101%. Moreover, the fraction unbound at 4 h, 5 μM in data set [2] (rat, plasma) came out at 0.091.

As for `CC(CNC(=N)CNc1ccccc1)Oc1cccc(Cl)c1.O=CO` (stereo not drawn) [BW501C67, N-(2-(3-chlorophenoxy)propyl)-2-(phenylamino)acetimidamide formate], in data set [1] (setting [6]), the Cmax is 91.4 ng/mL and 32.3 ng/g; the concentration at 0.167 h was 91.4 ng/mL and 10.4 ng/g; the concentration at 0.5 h is 73.8 ng/mL and 13.6 ng/g; the half-life is 187 min. In data set [1] (male, Sprague Dawley, rat, in vivo, sc, 1 mg/kg, AUC0-last (h*ng/mL), brain, 1 mg/kg SC), this compound displayed an AUC(0-t) of 436 ng·h/mL. Besides, in data set [1] (male, Sprague Dawley, rat, in vivo, sc, 1 mg/kg, AUC0-last (h*ng/mL), plasma, 1 mg/kg SC), the AUC(0-t) was 277 ng·h/mL. In data set [1] (male, Sprague Dawley, rat, in vivo, sc, 1 mg/kg, Tmax (h), brain, 1 mg/kg SC), the Tmax is 240 min. The Tmax in data set [1] (male, Sprague Dawley, rat, in vivo, sc, 1 mg/kg, Tmax (h), plasma, 1 mg/kg SC) amounted to 10.2 min. Besides, the “% Remaining (120 minutes)” value in data set [3] (Method 1: 1 μM) is listed as 110.8%. Also, in data set [2] (rat, plasma), the fraction unbound at 4 h, 2 μM is 0.107.
